Measured values: patent US9272998B1, “Modulation of c-FOS and BDNF protein expression in pentylenetetrazole-kindled mice following the treatment with novel anti-epileptic compound HHL-6” (priority 2015, dated 2016)

What was measured:
[1] = system: scPTZ-induced seizure in mice; experiment: subcutaneous PTZ-induced seizure test (scPTZ); type: in vivo; conditions: for mortality in scPTZ test: 20 mg/kg of HHL-6 or 7.5 mg/kg of diazepam, PTZ-control 100% mortality; for protection against scPTZ induced mortality / Onset of jerks / Rearing & falling: diazepam 7.5 mg/kg; for protection against scPTZ induced mortality: mortality within 24 hours; for Onset of jerks / Rearing & falling: i.p. 30 min before s.c. PTZ 90 mg/kg, mean of 6 mice; for Onset of jerks: PTZ-control 190; for Rearing & falling: PTZ-control 640
Method: (§1) Albino male NMRI mice weighing 20-25 grams were used. The animals were housed under standard laboratory conditions i.e. 12:12 hr light: dark cycle, temperature (21±2° C.) and air humidity controlled environment. Food and water were provided ad libitum. All experiments were carried out in accordance to the International Guidelines for the Use and Care of Laboratory Animals and approved by Scientific Advisory Committee on Animal Care, Use, and Standards of our institute.
The anticonvulsant effect of HHL-6 using scPTZ test was evaluated by administering 20 mg/kg dose to groups of 6 mice at least 30 min before subcutaneous administration of convulsive dose of PTZ (90 mg/kg). After PTZ administration, animals were isolated and observed for an hour for the presence or absence of different types of seizure patterns. Latency to PTZ-induced threshold seizures was also calculated. The latency to threshold seizure is defined as the interval between the time of the PTZ-injection and the occurrence of first episode of threshold seizure. Protection of testing material against PTZ-induced mortality within 24 hours was also evaluated. In all experiments, diazepam (7.5 mg/kg i.p) was used as positive control.
In Table 3, the HHL-6 and diazepam were injected intraperitoneally 30 min before the administration of subcutaneous pentylenetetrazole (90 mg/kg) in their respective groups. Values are presented as mean for the duration of tonic seizure for 6 mice.

[2] = system: scPTZ-induced kindling in mice; experiment: PTZ-induced kindling test (Racine's scale seizure score); type: in vivo
Method: as §1
Sub-convulsive dose (50 mg/kg) of PTZ was given subcutaneously to all groups (n=12/group) except normal control after every 48 hours. In normal control group, instead of PTZ, saline was used. The drug control groups received daily administration of diazepam (7.5 mg/kg). The test group was treated with the HHL-6 (20 mg/kg) once daily. Racine's scale was used to score the seizure activity such as stage 0: no response; stage 1: ear and facial twitching; stage 2: convulsive wave through the body; stage 3: myoclonic jerks, stage 4: clonic-tonic convulsions, turnover into side position; stage 5: generalized clonic-tonic seizures, loss of postural control. Animals showing score 4 or 5 were considered to be fully kindled.

c-Fos protein expression = experiment: c-Fos immunohistochemistry of brain sections of PTZ-kindled mice (ImageJ densitometry); type: in vivo; conditions: for Fluorescence intensity of c-Fos, Amygdala / Fluorescence intensity of c-Fos, Thalamus / Fluorescence intensity of c-Fos, Hippocampus / Fluorescence intensity of c-Fos, Cortex: PTZ-kindled mice, HHL-6 20 mg/kg, DZP 7.5 mg/kg, mean ± S.E.M.; for Fluorescence intensity of c-Fos, Amygdala: normal control 12.23 ± 2.9, PTZ control 38.17 ± 5.08; for Fluorescence intensity of c-Fos, Thalamus: normal control 12.58 ± 1.79, PTZ control 45.36 ± 3.70; for Fluorescence intensity of c-Fos, Hippocampus: normal control 15.29 ± 2.3, PTZ control 44.27 ± 7.43; for Fluorescence intensity of c-Fos, Cortex: normal control 16.31 ± 1.24, PTZ control 40.69 ± 8.2; for c-Fos staining intensity (FIG. 4B): cortical region, kindled animals, normal control 16.31±1.24, PTZ control 40.69±8.2
Method: (§2) Animals were sacrificed 24 hrs after establishment of complete kindling. Cardiac perfusion with chilled PBS buffer (NaCl—8 g, KCl—0.2 g, Na2HPO4×12 H2O—2.85 g, KH2PO4—0.2 g; pH 7.4) containing heparin was performed. Whole brains were removed, post-fixed in ice-cold 2% PFA for 24 hrs at +4° C. and then placed in 30% sucrose until brain samples sank to the bottom of the container. The samples were stored at −80° C. until further processing.
Frozen brain samples were cut into […] thick sections and directly taken on poly L-lysine coated slides and kept at −20° C. overnight. The cryosections were incubated overnight at 4° C. with primary antibody i.e. purified c-Fos (4): sc-52 for c-Fos detection and BDNF (N-20): sc-546 for BDNF detection independently. This was followed by re-incubation with secondary antibody i.e. biotinylated goat anti-mouse IgG (Alexa Flour) for 1 hour at room temperature in dark. The stained sections were observed under fluorescent microscope (Nikon ECLIPSE TE2000-S, Japan). Since the specificity of the primary antibody is very critical therefore, in order to determine specificity, negative controls were also processed by eliminating the step where sections were incubated with their respective primary antibody.
Expression of c-Fos and BDNF protein observed under the fluorescent microscope was analyzed by using software ImageJ (NIH, USA). The image processing program ImageJ helps in multiple imaging system data comparisons taking density (densitometry) in consideration to analyze the images. For each image, background density was determined and subtracted; the remaining particles were considered to represent c-Fos or BDNF expression. Data were obtained from two sections per mouse (n=12 animals per group) and presented as means±S.E.M. cFos and BDNF immunoreactivity in the amygdala, cortex, dorsal hippocampus, and thalamus were centered approximately around 3.6 mm posterior to bregma. Within the hippocampus region, measurements were performed over the layer extending from sub-regions CA1-CA3.
(§3) Data is presented as mean±standard error of the mean (S.E.M.). The seizure activity was analyzed by nonparametric Mann-Whitney U tests. The immunostaining data was analyzed by one-way ANOVA with post hoc Dunnett's multiple comparison tests. Sequential differences among means were calculated at the level of P<0.05 using the SPSS version 10.

[3] = observed 1-2 hr after treatment
Source text: Animals were transferred into individual cages the day before the experiments to allow them to acclimatize to the new environment. […] For behavioral studies, blind-testing was employed i.e., the experimenter conducting this study was blinded to the given treatment.

[4] = HHL-6 20 mg/kg; 30 min and 1 h after injection
Method: This was examined by Traction test. The forepaws of a mouse were placed on a small twisted wire rigidly supported above a bench top. Normal mice grasped the wire with forepaws and when allowed to hang free, placed at least one hind foot on the wire within 5 seconds. Inability to put up at least one hind foot constituted failure to the traction. The test was conducted at 30 min and 1 h after the injection of saline, diazepam or HHL-6.

BDNF protein expression = experiment: BDNF immunohistochemistry of brain sections of PTZ-kindled mice (ImageJ densitometry); type: in vivo; conditions: cortical region, kindled animals; normal control 29.53±3.9, PTZ control 57.6±13.6
Method: as §2
Frozen brain samples were cut into […] thick sections and directly taken on poly L-lysine coated slides and kept at −20° C. overnight. The cryosections were incubated overnight at 4° C. with primary antibody i.e. purified c-Fos (4): sc-52 for c-Fos detection and BDNF (N-20): sc-546 for BDNF detection independently. […]
Expression of c-Fos and BDNF protein observed under the fluorescent microscope was analyzed by using software ImageJ (NIH, USA). […] For each image, background density was determined and subtracted; the remaining particles were considered to represent c-Fos or BDNF expression. […]
as §3

[5] = HHL-6 20 mg/kg, PTZ 90 mg/kg s.c.
[6] = PTZ 90 mg/kg s.c., HHL-6 20 mg/kg

Which protection from jerks [1, 5] does the source give for `CCCCCC(=O)NCCc1c(C(C)=O)[nH]c2c(OC)cccc12` [HHL-6, 2-acetyl-3-(2-hexanoylamidoethyl)-7-methoxyindole] here?
The protection from jerks was “unable to provide protection from jerks”.

What about the “protection from tonic fore limb and hind limb seizures” value [1, 5] of the same molecule?
The value was 100%.

And the “mortality in scPTZ test” value ([1]; PTZ 90 mg/kg s.c.)?
Its value is “Mortality was not demonstrated”.

What about the “protection against scPTZ induced mortality” value [1, 6] of the same molecule?
Its value is 100%.

What about the Onset of jerks ([1]; HHL-6 20 mg/kg) of the same molecule?
Its Onset of jerks is 460 s.

And the “Rearing & falling” value ([1]; HHL-6 20 mg/kg)?
Its value is 0 s.

What about the “seizure score (kindling) after treatment day 13” value ([2]; HHL-6 20 mg/kg, PTZ 50 mg/kg on alternate days, 18 doses in 36 days) of the same molecule?
Its value is 0.

What about the “seizure score (kindling)” value ([2]; treatment day 9 till 13, HHL-6 20 mg/kg once daily, PTZ 50 mg/kg s.c. every 48 hours, PTZ-kindled control average 4.9) of the same molecule?
Its value is 0.3.

And the “Fluorescence intensity of c-Fos, Amygdala” value (c-Fos protein expression)?
Its value is 15.21 ± 2.3 arbitrary unit.

And the “Fluorescence intensity of c-Fos, Thalamus” value (c-Fos protein expression)?
Its value is 15.58 ± 3.74 arbitrary unit.

What about the “Fluorescence intensity of c-Fos, Hippocampus” value (c-Fos protein expression) of the same molecule?
Its value is 16.92 ± 2.75 arbitrary unit.

What about the “Fluorescence intensity of c-Fos, Cortex” value (c-Fos protein expression) of the same molecule?
The value was 18.24 ± 3.2 arbitrary unit.

And the “c-Fos staining intensity (FIG. 4B)” value (c-Fos protein expression)?
Its value is 18.24±3.2.

What about the “alteration in normal behavior pattern” value [3] of the same molecule?
The value was “did not show any alteration in their normal behavior pattern”.

And the hyper-excitability or sedation [3]?
Its hyper-excitability or sedation is “not observed”.

What about the “muscle relaxant activity (traction test)” value [4] of the same molecule?
The value was “did not observed muscle relaxant activity”.

And the “BDNF staining intensity (FIG. 5B)” value (BDNF protein expression)?
The value was 26.2±5.4.

What does the source list for `CN1C(=O)CN=C(c2ccccc2)c2cc(Cl)ccc21` [diazepam, reference compound]?
mortality in scPTZ test ([1]; PTZ 90 mg/kg s.c.): Mortality was not demonstrated; protection against scPTZ induced mortality [1, 6]: 100%; Onset of jerks ([1]; HHL-6 20 mg/kg): 0 s; Rearing & falling ([1]; HHL-6 20 mg/kg): 0 s; seizure pattern till the end of the kindling protocol ([2]; diazepam 7.5 mg/kg daily, PTZ 50 mg/kg s.c. every 48 hours): did not exhibit any seizure pattern; Fluorescence intensity of c-Fos, Amygdala (c-Fos protein expression): 14.94 ± 1.99 arbitrary unit; Fluorescence intensity of c-Fos, Thalamus (c-Fos protein expression): 18.33 ± 2.19 arbitrary unit; Fluorescence intensity of c-Fos, Hippocampus (c-Fos protein expression): 20.09 ± 3.77 arbitrary unit; Fluorescence intensity of c-Fos, Cortex (c-Fos protein expression): 17.28 ± 3.6 arbitrary unit; c-Fos staining intensity (FIG. 4B) (c-Fos protein expression): 17.28±4.6; BDNF staining intensity (FIG. 5B) (BDNF protein expression): 31.5±7.6
